Laboratory results taken from ChEMBL document CHEMBL1944554, “Structure-activity relationships for the interaction of 5,10-dihydroindeno[1,2-b]indole derivatives with human and bovine carbonic anhydrase isoforms I, II, III, IV and VI” (Eur J Med Chem, 2012).

Legend:
[1] = target: T1, Carbonic anhydrase 3 (Bos taurus, UniProt Q3SZX4); test: Inhibition of bovine carbonic anhydrase 3 using 4-nitrophenylacetate as substrate after 3 mins using spectrophotometry by Lineweaver-Burk plot analysis
T1 sequence (Q3SZX4 whole entry): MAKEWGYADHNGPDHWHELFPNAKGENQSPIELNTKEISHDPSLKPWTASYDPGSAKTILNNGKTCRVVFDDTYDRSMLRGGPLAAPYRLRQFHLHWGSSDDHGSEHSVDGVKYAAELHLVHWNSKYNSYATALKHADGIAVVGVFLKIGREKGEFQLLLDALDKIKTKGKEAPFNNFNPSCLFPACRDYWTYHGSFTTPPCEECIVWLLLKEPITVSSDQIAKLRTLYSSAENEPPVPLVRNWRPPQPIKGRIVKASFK

[2] = target: Carbonic anhydrase 1 (Homo sapiens, UniProt P00915); test: Inhibition of human carbonic anhydrase 1 using 4-nitrophenylacetate as substrate after 3 mins using spectrophotometry by Lineweaver-Burk plot analysis
Sequence of Carbonic anhydrase 1 (P00915 whole entry): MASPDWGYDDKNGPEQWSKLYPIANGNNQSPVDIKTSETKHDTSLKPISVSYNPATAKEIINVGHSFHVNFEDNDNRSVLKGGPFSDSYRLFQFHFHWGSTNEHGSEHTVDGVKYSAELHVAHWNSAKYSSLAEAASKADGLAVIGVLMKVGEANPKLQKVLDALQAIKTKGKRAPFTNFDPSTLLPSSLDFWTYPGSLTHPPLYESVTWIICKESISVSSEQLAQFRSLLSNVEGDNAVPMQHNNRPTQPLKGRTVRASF

[3] = target: Carbonic anhydrase 2 (Homo sapiens, UniProt P00918); test: Inhibition of human carbonic anhydrase 2 using 4-nitrophenylacetate as substrate after 3 mins using spectrophotometry by Lineweaver-Burk plot analysis
[4] = target: Carbonic anhydrase 4 (Homo sapiens, UniProt P22748); test: Inhibition of human carbonic anhydrase 4 using 4-nitrophenylacetate as substrate after 3 mins using spectrophotometry by Lineweaver-Burk plot analysis
Sequence of Carbonic anhydrase 4 (P22748 whole entry): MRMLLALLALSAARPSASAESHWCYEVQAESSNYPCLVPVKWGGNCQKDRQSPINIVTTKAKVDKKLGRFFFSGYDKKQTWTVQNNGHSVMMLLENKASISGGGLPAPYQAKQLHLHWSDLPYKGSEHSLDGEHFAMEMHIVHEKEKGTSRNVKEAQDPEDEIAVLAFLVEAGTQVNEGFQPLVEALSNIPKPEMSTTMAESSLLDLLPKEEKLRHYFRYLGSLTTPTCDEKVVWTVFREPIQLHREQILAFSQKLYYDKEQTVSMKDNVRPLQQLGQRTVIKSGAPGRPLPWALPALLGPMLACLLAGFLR

[5] = target: Carbonic anhydrase 6 (Homo sapiens, UniProt P23280); test: Inhibition of human carbonic anhydrase 6 using 4-nitrophenylacetate as substrate after 3 mins using spectrophotometry by Lineweaver-Burk plot analysis
Sequence of Carbonic anhydrase 6 (P23280 whole entry): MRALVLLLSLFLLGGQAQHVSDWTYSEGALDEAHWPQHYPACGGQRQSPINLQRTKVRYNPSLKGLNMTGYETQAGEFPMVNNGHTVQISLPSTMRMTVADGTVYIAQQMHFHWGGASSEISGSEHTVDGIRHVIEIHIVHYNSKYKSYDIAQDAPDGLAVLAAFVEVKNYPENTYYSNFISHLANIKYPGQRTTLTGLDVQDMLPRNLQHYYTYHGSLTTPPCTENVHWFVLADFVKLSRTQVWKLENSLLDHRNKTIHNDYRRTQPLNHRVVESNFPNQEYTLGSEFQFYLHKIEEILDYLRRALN

Ki [1]	SMILES	further results
9.08 µM	Oc1ccc2c(c1)Cc1c-2[nH]c2ccccc12	–
15.6 µM	COc1ccc2c(c1)-c1[nH]c3ccccc3c1C2	–
8.72 µM	Clc1ccc2c(c1)Cc1c-2[nH]c2ccccc12	–
5.17 µM	Oc1cc2c(cc1O)-c1[nH]c3ccccc3c1C2	–
8.51 µM	NS(=O)(=O)Cc1noc2ccccc12 [ZONISAMIDE]	–
15.8 µM	COc1cc2c(cc1OC)-c1[nH]c3ccccc3c1C2	–
14.9 µM	COc1ccc2c(c1)Cc1c-2[nH]c2ccccc12	–
4.63 µM	Oc1cc(O)c2c(c1)Cc1c-2[nH]c2ccccc12	–
9.42 µM	Oc1ccc2c(c1)-c1[nH]c3ccccc3c1C2	–
8.84 µM	Oc1cccc2c1Cc1c-2[nH]c2ccccc12	–
2.13 µM	Oc1ccc2c(c1O)Cc1c-2[nH]c2ccccc12	–
4.34 µM	Oc1ccc(O)c2c1Cc1c-2[nH]c2ccccc12	–
11.2 µM	COc1ccc(OC)c2c1Cc1c-2[nH]c2ccccc12	–
17.8 µM	c1ccc2c(c1)Cc1c-2[nH]c2ccccc12	–
10.3 µM	COc1ccc2c(c1OC)Cc1c-2[nH]c2ccccc12	–
16.3 µM	COc1cccc2c1Cc1c-2[nH]c2ccccc12	–
8.63 µM	Fc1ccc2c(c1)Cc1c-2[nH]c2ccccc12	–
14.3 µM	COc1cc2c(c(OC)c1)-c1[nH]c3ccccc3c1C2	–
8.51 µM	Brc1ccc2c(c1)Cc1c-2[nH]c2ccccc12	–
12.7 µM	c1ccc2c3c([nH]c2c1)-c1cc2c(cc1C3)OCO2	–
9.44 µM	CCOc1ccc2nc(S(N)(=O)=O)sc2c1 [ETHOXZOLAMIDE]	–
9.62 µM	Oc1cccc2c1-c1[nH]c3ccccc3c1C2	–

SMILES	Ki [1]	further results
COc1ccccc1OC [1,2-DIMETHOXYBENZENE]	4.24 µM	–
c1ccc2[nH]ccc2c1 [INDOLE]	17.6 µM	Ki [2]: 27.4 µM; Ki [3]: 32.5 µM; Ki [4]: 2.33 µM; Ki [5]: 3.63 µM
Oc1ccccc1O [CATECHOL]	3.48 µM	–
C[C@]12CC[C@@H]3c4ccc(OS(N)(=O)=O)cc4CC[C@H]3[C@@H]1CCC2=O [EMATE]	12.4 µM	Ki [2]: 12.3 µM; Ki [4]: 1.04 µM; Ki [5]: 1.86 µM
